The text below walks through data of patent US11208642B2, “Microbial syringol utilization” (Alliance for Sustainable Energy, LLC, priority 2018, dated 2021).

For one assay, the target named is T1, GcoA-F169A and GcoB (Amycolatopsis sp., UniProt P0DPQ7, F169A/H210Q).
T1 construct: GST (N, cleaved yes); made in house; host or cells: E. coli Rosetta 2 (DE3)
Kind of assay: Stoichiometric end-point analysis of reactants and products (HPLC, formaldehyde assay). In kind it is biochemical. The conditions noted are these: for Formaldehyde produced: 100 μM substrate, 210 μM O2, reaction to completion. The protocol: FIG. 3 depicts quantitative analyses of substrate consumption and product generation indicate nearly complete coupling of NADH/O2 consumption to substrate O-demethylation for guaiacol, and progressively more uncoupling for syringol and 3MC. NADH (200 μM) and guaiacol, syringol, or 3MC (100 or 200 μM) were incubated in air with 0.2 μM GcoA-F169A and GcoB (each) (25 mM HEPES, 50 mM NaCl, pH 7.5, 25° C., 210 μM O2). Reactants and products were quantified when the UV/vis spectra ceased changing and the reaction deemed complete. The total NADH consumed is compared above to the amounts of formaldehyde and de-methylated aromatic compound produced. Pyrogallol, the O-demethylated product of 3MC, was not detected under any condition. Error bars represent ±1 standard deviation from three or more independent measurements.
Since both methoxy groups of syringol can potentially serve as substrates, we examined syringol turnover in a number of ways. Syringol (100 μM) was first incubated with NADH (200 μM) and excess dissolved O2 (210 μM), and the reaction with the GcoA-F169A mutant allowed to go to completion. As with the guaiacol reaction, all of the NADH and syringol were consumed (FIG. 3), implying that syringol undergoes two O-demethylations, producing 3MC and then pyrogallol (210 μM O2, 25 mM HEPES, 50 mM NaCl, pH 7, 25° C.).
The stoichiometric analysis was next repeated with NADH and syringol present in equal concentrations (200 μM each; 210 μM O2), conditions expected to permit at most half of the available methoxy groups to react. All of the NADH and 150±6 μM of syringol were consumed; 200±3 μM formaldehyde and 120±2 μM 3MC were generated (Table 1, FIG. 3).
Formaldehyde determination. A colorimetric assay using tryptophan can be used to quantify the amount of formaldehyde produced in F169 GcoA/B reactions with guaiacol, syringol, or 3MC. 0.2 μM each of F169 GcoA mutants and GcoB were dissolved in air-saturated buffer (25 mM HEPES, 50 mM NaCl) in a cuvette at pH 7.5, 25° C. 100 μg/mL catalase was added to each reaction to capture any H2O2 formed during the uncoupled reaction. Two hundred μM NADH was added and the background rate recorded. One hundred (guaiacol, syringol, or 3MC) or 200 (syringol) μM of substrate was then added and the reaction monitored until there was no more change, due to either substrate, NADH or O2 depletion, whichever occurred first. 200 μL of the reaction was then quenched by adding 200 μL of a 0.1% tryptophan solution in 50% ethanol and 200 μL of 90% sulfuric acid. Upon thorough mixing, 40 μL of 1% FeCl3 was added. The solution was then incubated in a heating block for 90 min at 70° C. After cooling, the absorbance was read at 575 nm and the concentration of formaldehyde was calculated by using ε575 nm=4.2 mM^−1 cm^−1, obtained with formaldehyde as a standard. A negative control included everything but the substrate and was used as a baseline.
Analyte analysis of the above end-point reactions (100 μM guaiacol, syringol, or 3MC, or 200 μM syringol) was performed on an Agilent 1100 LC system (Agilent Technologies) equipped with a G1315B diode array detector (DAD). Each sample and standard was injected at a volume of 10 μL onto a Symmetry C18 column 5 μm, 4.6×150 mm column (Waters). The column temperature was maintained at 30° C. and the buffers used to separate the analytes of interest was 0.01% TFA in water (A)/acetonitrile (B). The separation was carried out using a gradient program of: (A)=99% and (B)=1% at time t=0 min; (A)=99% and (B)=1% at time t=2 min, (A)=50% and (B)=50% at t=8 min; (A)=1% and (B)=99% at t=8.01 min; (A)=99% and (B)=1% at t=10.01 min; (A)=99% and (B)=1% at t=11 min. The flow rate was held constant at 1.5 mL min^−1, resulting in a run time of 11 minutes. DAD wavelengths of 210 and 325 nm were used for analysis of the analytes of interest. Standard curves were generated using 0-500 μM of guaiacol, syringol, 3MC, catechol, and pyrogallol. […]

For a further assay, the target named is GcoA (Amycolatopsis sp., UniProt P0DPQ7, H210Q). The experiment in a line: Syringol binding to wild-type GcoA (KD). The source says:
The syringol binding mode can be modulated by active site engineering. Guaiacol assumes a productive orientation in the active site of GcoA due to the action of amino acid side chains that create a tight-fitting hydrophobic pocket. The closest contact is with GcoA-F169, which forms a hydrophobic interaction with the C6 carbon on the aromatic ring of guaiacol. […] We identified that the mutation of GcoA-F169 to a smaller residue may relieve the apparent steric clash between it and the bound ligand in the active site, allowing syringol to adopt a productive conformation. To test this hypothesis, GcoA-F169 was substituted with several alternative amino acids (A, S, H, V, I, and L) with the aim of introducing productive syringol turnover while retaining reactivity with guaiacol.

Setting [1] is: 200 μM syringol, 200 μM NADH, 210 μM O2.

T1 sequence (P0DPQ7 whole entry F169A/H210Q): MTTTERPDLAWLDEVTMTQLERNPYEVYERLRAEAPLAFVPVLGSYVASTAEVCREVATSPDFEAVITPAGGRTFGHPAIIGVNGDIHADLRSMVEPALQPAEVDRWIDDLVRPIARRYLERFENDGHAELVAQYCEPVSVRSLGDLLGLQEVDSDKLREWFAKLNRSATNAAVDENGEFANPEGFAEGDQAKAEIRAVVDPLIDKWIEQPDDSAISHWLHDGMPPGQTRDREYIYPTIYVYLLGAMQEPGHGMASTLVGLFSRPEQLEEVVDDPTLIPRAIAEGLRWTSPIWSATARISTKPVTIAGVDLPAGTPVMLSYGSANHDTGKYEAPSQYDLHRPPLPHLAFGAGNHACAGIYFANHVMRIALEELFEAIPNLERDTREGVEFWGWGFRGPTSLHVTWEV
GcoA, sequence (P0DPQ7 whole entry H210Q): as the sequence (P0DPQ7 whole entry F169A/H210Q) above, with A169F counted along it

For `COc1cccc(O)c1O` [3MC, 3-methoxycatechol], on GcoA-F169A and GcoB (200 μM NADH), the Formaldehyde produced entry is listed as “approximately 100 μM”.

The molecule `COc1cccc(OC)c1O` [syringol, 2,6-dimethoxyphenol] displayed a Kd at GcoA of 2.8 ± 0.4 µM. Also, the Formaldehyde produced on GcoA-F169A and GcoB (200 μM NADH) was determined as 170 ± 10 µM. Besides, the “Singly demethylated intermediate 3MC observed at end of reaction” value on GcoA-F169A and GcoB (100 μM syringol, 200 μM NADH, 210 μM O2) was 50 ± 4 µM. Also, at GcoA-F169A and GcoB (setting [1]), the 3MC generated turned out to be 120 ± 2 µM, the Formaldehyde generated stood at 200 ± 3 µM and the Syringol consumed came to 150 ± 6 µM. Also, the Pyrogallol detection entry on GcoA-F169A and GcoB (any of the conditions used) is “not detected”.
